# Measured values as given in patent US20240358701A1, “PHARMACEUTICAL COMPOSITIONS AND COMBINATIONS COMPRISING INHIBITORS OF THE ANDROGEN RECEPTOR AND USES THEREOF” (ESSA Pharma Inc., priority 2021, published 2024).
# Where two headings read alike, the source gives them in different places.
# Columns and labels:
# [1] = Phase 1 dose escalation (Example 3): PK evaluation / drug-drug interaction; type: in vivo, human; details: for exposure under drug-drug interaction with a concomitant medication (strong CYP3A inducer): discontinued at end of cycle 2; for AUC: human, plasma, oral, 600 mg QD, read-out: AUCss for Compound A
# Experimental: Phase 1 of the study is a single-arm dose escalation study of Compound A in combination with a fixed dose of enzalutamide (120 mg/day). This portion of the study primarily evaluates the safety and tolerability of the drug combination and establishes the RP2CD for Compound A and enzalutamide when dosed in combination. In addition, blood sampling will be conducted for PK evaluation to assess the potential drug-drug interaction (DDI) between the two drugs.
# In the Phase 1 part of the study each dose cohort will receive a 7-day run-in with single agent Compound A to establish steady-state concentrations of this drug at that dose level, followed by 28-day cycles of the combination Compound A with enzalutamide. Subjects may remain on study treatment as long as they are tolerating treatment without disease progression based on Response Evaluation Criteria in Solid Tumors (RECIST) v1.1 or based on Prostate Cancer Working Group 3 (PCWG3) criteria. A 30-day End of Treatment Visit will be conducted 30 days from the date of the last dose.
# For Cohort 1, subjects (n=3) were orally administered 600 mg QD (once a day) of Compound A alone for 7 days then administered 600 mg QD Compound A in combination with 120 mg QD enzalutamide for at least one cycle (e.g., 28 days). Two subjects received the combination of Compound A and enzalutamide for at least 4 cycles (e.g., 16 weeks).
# The plasma concentration data for Compound A, enzalutamide, N-desmethylated enzalutamide (M2; active metabolite) will be analyzed using non-compartmental methods to obtain estimates of standard PK parameters.
# PK parameters of Compound A following multiple dosing including but not limited to plasma area under the concentration-time curve from time zero to 24 hours (AUC0-24), maximum concentration (Cmax), observed pre-dose plasma concentration during multiple dosing (Ctrough), time to reach Cmax (Tmax), apparent terminal elimination half-life (t½; whenever feasible to calculate), apparent volume of distribution at steady state after extravascular administration (Vss/F), apparent clearance after extravascular administration (CL/F).
# PK parameters of enzalutamide and its primary active metabolite following multiple dosing including but not limited to AUC0-24, Cmax, Ctrough, Tmax, t½ (whenever feasible to calculate), Vss/F, CL/F.
# [2] = enzalutamide monotherapy, cited from earlier work
# [3] = Cohort 1: 600 mg QD Compound A + 120 mg QD enzalutamide
SMILES,"exposure under drug-drug interaction with a concomitant medication (strong CYP3A inducer) ([1]; Cohort 1, third subject)","Compound A exposure, impact of enzalutamide [1, 3]","AUC ([1]; Cohort 1, first subject, no prior chemotherapy (FIG. 1A)) [ng·h/mL]","AUC ([1]; Cohort 1, second subject, prior chemotherapy (FIG. 1B)) [ng·h/mL]","AUC ([1]; Cohort 1, third subject, prior chemotherapy, concomitant strong CYP3A inducer (FIG. 1C)) [ng·h/mL]","enzalutamide exposure, impact of Compound A administration [1, 3]",90 day confirmed PSA<0.2 ng/mL rate ([2]; post-chemotherapy population) [%],90 day confirmed PSA<0.2 ng/mL rate ([2]; pre-chemotherapy population) [%]
"CC(C)(c1ccc(OCc2ccnc(NS(C)(=O)=O)n2)cc1)c1cc(Cl)c(OCCCl)c(C#N)c1 [Compound A, N-(4-((4-(2-(3-chloro-4-(2-chloroethoxy)-5-cyanophenyl)propan-2-yl)phenoxy)methyl)pyrimidin-2-yl)methanesulfonamide]",significant decrease in exposure,impacted by enzalutamide with higher metabolism of Compound A observed,~235000,~62000,~33000,–,–,–
"CNC(=O)c1ccc(N2C(=S)N(c3ccc(C#N)c(C(F)(F)F)c3)C(=O)C2(C)C)cc1F [enzalutamide, reference compound]",significant decrease in exposure,–,–,–,–,only minimally impacted,1,5
